How the values were obtained:
Format in all cases: cell-based
[1] = system: A549 cells; assay: Cell Migration Assay (transwell, laminin); details: Homo sapiens, laminin 10 μg/mL in lower well, test compounds 0.39˜100 μM, 6 hours at 37° C.
In short: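 A549 cells in serum-free RPMI1640 migrated 6 h at 37 °C through 8.0 μm-pore polycarbonate membranes toward laminin (10 μg/mL), compound (0.39–100 μM) in both chambers. Migrated cells hematoxylin-stained, counted at three fields (×20); IC50 by non-linear regression.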

[2] = Cytotoxicity Study (WST); details: human; A549 cells, serum-free RPMI1640, test compounds 0.39˜100 μM, 5 hours + 2 hours WST, absorbance 450 nm
Experimental: A549 cells (Korean Cell Line Bank) was added to a 96-well plate in a concentration of 2×10^4 cells per well and then a RPMI1640 medium supplemented with 10% fetal bovine serum was added to each well. After culturing 24 hours, the medium was changed with a serum-free RPMI1640 medium and then test compounds (0.39˜100 μM) were treated. After culturing at 37° C. for 5 hours in a CO2 incubator, 10 μL of a WST reagent (Roche) was added to each well, which was then cultured for additional 2 hours. A microplate reader was used to measure the absorbance at 450 nm. From the absorbance values, each IC50 value was calculated by non-linear regression curve fit using the ‘GraphPad Prism” program.
The cytotoxicity study was performed, using the reduction of WST by the NADH produced by the electron transport system of mitochondria. […] Therefore, the compounds of the present invention have therapeutic activity against a disease associated with cancer cell metastasis through (i) selective inhibition against the binding between KRS and LR and (ii) inhibition of cell migration, rather than non-specific cytotoxicity.

[3] = molecular target: T1, interaction between the KRS protein and the laminin receptor (LR) (Homo sapiens, UniProt Q15046); assay: Yeast Two Hybrid inhibition of the interaction between the KRS protein and the laminin receptor (LR); details: 1 μL of 20 mM DMSO solution per 200 μL culture; 30° C., 6 days; absorbance 540 nm; non-treated control = 100%
T1 construct: expressed in transfected cells; host or cells: yeast EGY/SH cells
T1 sequence (Q15046 whole entry): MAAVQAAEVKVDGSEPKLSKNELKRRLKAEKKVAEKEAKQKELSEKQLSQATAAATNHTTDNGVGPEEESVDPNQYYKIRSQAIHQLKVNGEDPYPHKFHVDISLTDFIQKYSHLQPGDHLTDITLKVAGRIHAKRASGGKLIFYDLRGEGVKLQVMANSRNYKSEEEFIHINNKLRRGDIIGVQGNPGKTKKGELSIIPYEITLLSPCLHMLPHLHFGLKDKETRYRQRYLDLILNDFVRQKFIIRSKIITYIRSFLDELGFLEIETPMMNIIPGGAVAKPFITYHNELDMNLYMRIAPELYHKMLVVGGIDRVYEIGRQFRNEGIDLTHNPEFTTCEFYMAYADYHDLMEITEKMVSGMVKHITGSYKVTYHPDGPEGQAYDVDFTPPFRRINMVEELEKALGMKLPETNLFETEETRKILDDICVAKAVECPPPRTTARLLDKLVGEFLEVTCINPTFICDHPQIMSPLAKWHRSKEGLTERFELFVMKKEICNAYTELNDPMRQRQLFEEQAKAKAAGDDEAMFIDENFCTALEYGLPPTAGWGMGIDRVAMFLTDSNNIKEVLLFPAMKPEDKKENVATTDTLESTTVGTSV
Experimental: The inhibitory activity against the interaction between the KRS protein and the laminin receptor (LR) was evaluated according to the Yeast Two Hybrid method described in WO2011/056021. According to the disclosures of WO2011/056021, we prepared a vector obtained by cloning the KRS gene in the LexA vector (Clontech) and a vector obtained by cloning the LR gene in the B42 vector (Clontech). The yeast cells, i.e., EGY/SH cells were co-transformed with the LexA-KRS vector and the B42-LR vector. The co-transformation was carried out using the Yeastmaker yeast transformation system2 kit (Clontech), according to the manufacturer's instruction. […] The cultured yeast cells were diluted with the said galactose medium, until the absorbance at 540 nm attains to about 0.15 to 0.2. The diluted culture (200 μL), containing the yeast cells, was added to each well of a 96-well plate. Each test compound was dissolved in dimethyl sulfoxide at a concentration of 20 mM and then the resulting solutions (1 μL) were added to each well. The plate was cultured at 30° C. for 6 days and then the absorbance of the each well was measured at 540 nm.
(§1) And also, specificity of the inhibitory activity was evaluated, using the yeast cells cotransformed with the LexA-KRS vector and the B42-AIMP2 vector; and the yeast cells co-transformed with the LexA-KRS vector and the B42-AIMP3 vector, which were respectively prepared according to WO2011/056021. The co-transformation was carried out using the Yeastmaker yeast transformation system2 kit (Clontech), according to the manufacturer's instruction. […] The cultured yeast cells were diluted with the said galactose medium, until the absorbance at 540 nm attains to about 0.15 to 0.2. The diluted culture (200 μL), containing the yeast cells, was added to each well of a 96-well plate. Each test compound was dissolved in dimethyl sulfoxide at a concentration of 20 mM and then the resulting solutions (1 μL) were added to each well. The plate was cultured at 30° C. for 6 days and then the absorbance of each well was measured at 540 nm. The respective yeast cell proliferation rates (%) in the treated samples were calculated in comparison with those of the non-treated control (100%) and the results thereof are shown in Table 1 below.
When KRS is bound to LR, the trans-activation domain is come close to the DNA-binding domain and the genes for synthesizing essential amino acids are expressed, which leads to normal growth of the transformed yeasts, thereby increasing the absorbance.

[4] = molecular target: T2, binding between KRS and AIMP2 (Homo sapiens, UniProt Q15046); assay: Yeast Two Hybrid specificity test, LexA-KRS / B42-AIMP2 co-transformed yeast cells; details: 1 μL of 20 mM DMSO solution per 200 μL culture; 30° C., 6 days; absorbance 540 nm; non-treated control = 100%
T2 construct: expressed in transfected cells; host or cells: yeast cells (co-transformed)
T2 sequence (Q15046 whole entry): as above
Experimental: as §1

[5] = molecular target: T3, binding between KRS and AIMP3 (Homo sapiens, UniProt Q15046); assay: Yeast Two Hybrid specificity test, LexA-KRS / B42-AIMP3 co-transformed yeast cells; details: 1 μL of 20 mM DMSO solution per 200 μL culture; 30° C., 6 days; absorbance 540 nm; non-treated control = 100%
T3 construct: expressed in transfected cells; host or cells: yeast cells (co-transformed)
T3 sequence (Q15046 whole entry): as above
Experimental: as §1

| IC50 [1] [µM] | Yeast cell proliferation rates KRS-LR (%) [3] [%] | Yeast cell proliferation rates KRS-AIMP2 (%) [4] [%] | Yeast cell proliferation rates KRS-AIMP3 (%) [5] [%] | SMILES | IC50 at 5 h [2] [µM] |
| --- | --- | --- | --- | --- | --- |
| 5.2 |  |  |  | Cc1ccc(C(=O)N=c2sc3c(C(F)(F)F)cccc3n2C(C)C(=O)O)cc1 (stereo not drawn) [Example 98, 2-[2-(4-methylbenzoylimino)-7-(trifluoromethyl)benzo[d]thiazol-3(2H)-yl]propionic acid] | 74.9 |
| 9.8 |  |  |  | CC(C(=O)O)n1c(=NC(=O)c2cccc(Cl)c2)sc2cc(F)c(F)cc21 (stereo not drawn) [Example 289, 2-(2-((3-chlorobenzoyl)imino)-5,6-difluorobenzo[d]thiazol-3(2H)-yl)propionic acid] | 877 |
| 80 |  |  |  | CCC(C(=O)O)n1c(=NC(=O)c2cccc(F)c2)sc2cc(F)c(F)cc21 (stereo not drawn) [Example 442, 2-(5,6-difluoro-2-((3-fluorobenzoyl)imino)benzo[d]thiazol-3(2H)-yl)butanoic acid] | 361 |
| 40.9 |  |  |  | O=C(O)Cn1c(=NC(=O)c2cccc(C(F)(F)F)c2)sc2c(F)cccc21 [Example 356, 2-(7-fluoro-2-((3-(trifluoromethyl)benzoyl)imino)benzo[d]thiazol-3(2H)-yl)acetic acid] | 1190 |
| 10 |  |  |  | COc1cccc2sc(=NC(=O)c3cccc(C(F)(F)F)c3)n(C(C)C(=O)O)c12 (stereo not drawn) [Example 283, 2-(4-methoxy-2-(3-(trifluoromethyl)benzoylimino)benzo[d]thiazol-3(2H)-yl)propionic acid] | 108 |
|  |  |  |  | CCC(C(=O)O)n1c(=NC(=O)c2ccc([N+](=O)[O-])cc2)sc2ccccc21 (stereo not drawn) [Example 81, 2-[2-(4-nitrobenzoylimino)benzo[d]thiazol-3(2H)-yl]butanoic acid] | 828 |
| 37.4 |  |  |  | CC(C(=O)O)n1c(=NC(=O)c2cccc(Cl)c2)sc2cc(F)c(C(F)(F)F)cc21 (stereo not drawn) [Example 388, 2-(2-((3-chlorobenzoyl)imino)-6-fluoro-5-(trifluoromethyl)benzo[d]thiazol-3(2H)-yl)propionic acid] | 368 |
| 12 |  |  |  | Cc1ccc(C(=O)N=c2sc3cc(C(F)(F)F)ccc3n2CC(=O)O)cc1 [Example 246, 2-(2-((4-methylbenzoyl)imino)-6-(trifluoromethyl)benzo[d]thiazol-3(2H)-yl)acetic acid] | 245 |
| 7.9 | 13.8 | 92.0 | 90.4 | CCC(C(=O)O)n1c2c(sc1=NC(=O)c1cccc(Cl)c1)CCCC2 (stereo not drawn) [Example 299, 2-(2-(3-chlorobenzoylimino)-4,5,6,7-tetrahydrobenzo[d]thiazol-3(2H)-yl)butanoic acid] | 344 |
| 142 | 34.6 | 104.3 | 108.4 | CCC(C(=O)O)n1c(=NC(=O)c2cccc(Cl)c2)sc2ccc(Cl)cc21 (stereo not drawn) [Example 361, 2-(5-chloro-2-((3-chlorobenzoyl)imino)benzo[d]thiazol-3(2H)-yl)butanoic acid] | 581 |
| 15.9 |  |  |  | CCC(C(=O)O)n1c(=NC(=O)c2cc(F)cc(F)c2)sc2ccccc21 (stereo not drawn) [Example 78, 2-[2-(3,5-difluorobenzoylimino)benzo[d]thiazol-3(2H)-yl]butanoic acid] | 636 |
| 12.9 | 14.5 | 95.8 | 101.4 | CC(C(=O)O)n1c(=NC(=O)c2cccc(Cl)c2)sc2c(Cl)cccc21 (stereo not drawn) [Example 309, 2-(7-chloro-2-((3-chlorobenzoyl)imino)benzo[d]thiazol-3(2H)-yl)propionic acid] | 134 |
| 6.6 |  |  |  | CC(C(=O)O)n1c(=NC(=O)c2cccc(C(F)(F)F)c2)sc2c(Cl)cccc21 (stereo not drawn) [Example 308, 2-(7-chloro-2-((3-(trifluoromethyl)benzoyl)imino)benzo[d]thiazol-3(2H)-yl)propionic acid] | 267 |
| 3.2 | 35.1 | 87.0 | 99.0 | CCC(C(=O)O)n1c(=NC(=O)c2cccc(Cl)c2)sc2cc(F)c(F)cc21 (stereo not drawn) [Example 290, 2-(2-((3-chlorobenzoyl)imino)-5,6-difluorobenzo[d]thiazol-3(2H)-yl)butanoic acid] | 172 |
| 1 |  |  |  | CCC(C(=O)O)n1c(=NC(=O)c2cccc(C(F)(F)F)c2)sc2cc(F)c(F)cc21 (stereo not drawn) [Example 293, 2-(5,6-difluoro-2-((3-(trifluoromethyl)benzoyl)imino)benzo[d]thiazol-3(2H)-yl)butanoic acid] | 144 |
| 8.4 |  |  |  | O=C(O)Cn1c(=NC(=O)c2cccc(C(F)(F)F)c2)sc2ccccc21 [Example 125, 2-[2-(3-(trifluoromethyl)benzoylimino)benzo[d]thiazol-3(2H)-yl]acetic acid] | 7490 |
| 2.7 | 31.2 | 103.3 | 104.7 | CCOc1ccc2c(c1)sc(=NC(=O)c1cccc(Cl)c1)n2C(CC)C(=O)O (stereo not drawn) [Example 56, 2-{2-[(3-chlorobenzoyl)imino]-6-ethoxybenzo[d]thiazol-3(2H)-yl}butanoic acid] | 95.5 |
| 5.8 |  |  |  | CCC(C(=O)O)n1c(=NC(=O)c2cccc(Cl)c2)sc2cc(OC(F)(F)F)ccc21 (stereo not drawn) [Example 176, 2-(2-((3-chlorobenzoyl)imino)-6-(trifluoromethoxy)benzo[d]thiazol-3(2H)-yl)butanoic acid] | 247 |
|  |  |  |  | CCC(C(=O)O)n1c(=NC(=O)c2ccccc2)sc2ccccc21 (stereo not drawn) [Example 136, 2-[2-(benzoylimino)benzo[d]thiazol-3(2H)-yl]butanoic acid] | 281 |

From US20150011528A1, “PHENYLIMIDE-CONTAINING BENZOTHIAZOLE DERIVATIVE OF ITS SALT AND PHARMACEUTICAL COMPOSITION COMPRISING THE SAME” (YUHAN CORPORATION, priority 2011, published 2015)
